# Reference: patent US5369111A, “Modulator agent and use thereof” (University of Vermont, priority 1992, dated 1994)
# pIC50: −log10 of the molar value.
# How the values were obtained:
# S180/A10 cells = assay: Modulator potency in MDR cells: reversal of acquired resistance, S180/A10; assay type: cell-based, murine; settings: for reversal of high level ADM resistance: 90-fold resistance, A10; for Modulator potency in MDR cells (minimal concentration restoring parental drug sensitivity), VBL: drug resistance level 10; for Modulator potency in MDR cells (minimal concentration restoring parental drug sensitivity), VCR: drug resistance level 17
# Description: (§1) Mid-exponential cultures were used for all assays. The RCC-2 and RCC-5 cell lines were seeded into 24-well plates at 2×10^4 cells/well and allowed to attach to the substratum for 16-18 h prior to treatment. The S180 cell lines were seeded into culture tubes at 1×10^5 cells/ml and treated immediately. Cytotoxicity was determined by quantitation of population growth after 72 h incubation by electronic particle counter (Coulter Electronics, Hialeah, Fla.). The human tumor cell lines were used in a clonogenic assay for cytotoxicity. Cells were seeded at 300 cells/dish, incubated overnight and then treated. Colonies were scored 7-11 days later. In all assays of analog modulation of drug sensitivity, the analog was added minutes prior to the addition of cytotoxic drug.
# (§2) To evaluate the ability of vindoline and the two diastereoisomeric VBL analogs to modulate the MDR phenotype (acquired resistance) of the A3 and A10 cell stains, we determined the concentration of compound required to restore drug sensitivities to parental levels. This was done by exposing the MDR cell line to a concentration range of modulator in the presence VBL, VCR and ADM at the respective IC70s of the parental cell line. The cytotoxicity curves for A3 and A10 cells, shown in FIG. 5, are distinctive among the three vinca alkaloids examined. In each cell line, there was a minimum concentration of modulator that elicited 70% growth inhibition for each drug - i.e. the reversing concentration.
# (§3) *The minimal concentration of modulator required to restore the drug
# (§4) sensitivity of S180/MDR cell strains to that of parental S180 cells. Data
# (§5) are the averages of 2-3 separate experiments, S.D. ≤20%.
# [1] = Inhibition of population growth (cytotoxicity), rat colon adenocarcinoma RCC-5; assay type: cell-based; settings: rat, rcc-5 cells; RCC-5; Table III; read-out: Modulator concentration (nontoxic concentration limit of the analog)
# Excerpt: (§6) The analogs were examined in a panel of tumor cell lines of both intrinsic and acquired drug resistance, as described in Table 1. The rat colon adenocarcinoma cell lines RCC-2 and RCC-5 (ref. 13) were maintained in Ham's F12 medium supplemented with 5% heat-inactivated, fetal bovine serum (Sterile Systems. Hyclone, Logan, Utah). The two rat colon cancer cell lines differ in their degree of cellular differentiation; whereas the RCC-2 cell line is undifferentiated, the RCC-5 cell line is highly mucinous. The human epidermoid carcinoma cell line KB-3-1 and its MDR variant KB-Vl, selected by VBL treatment (ref. 14; courtesy of M. Gottesman. National Cancer Institute), was maintained in DMEM medium supplemented with 10%, heat-inactivated, fetal bovine serum. The murine sarcoma cell line […] and its MDR strains A3 and A10 selected by ADM treatment (ref. 15; courtesy of T. Tritton, Dept. Pharmacology, Univ. Vermont). were maintained in DMEM medium supplemented with 10% heat-inactivated, horse serum (Hazelton Biolog. Lenexa, Kans.). Stock cultures were subcultured twice weekly upon reaching the late exponential phase of population growth: population doubling times were 18-24 h. Antibiotics were not used in stock or experimental cultures. The MDR cell strains were grown in drug-free media for 48 h prior to experimental use.
# as §1
# [2] = Inhibition of population growth (cytotoxicity), S180 sarcoma, parental; assay type: cell-based, mouse; settings: mouse, s180 cells; S180; Table III; read-out: Modulator concentration (nontoxic concentration limit of the analog)
# Excerpt: as §6, §1
# [3] = tested on: parental cell lines (S180, RCC-2, RCC-5); assay: Modulation of intrinsic resistance in the parental cell lines (S180, RCC-2, RCC-5); assay type: cell-based, mouse, rat
# Description: as §1
# (§7) *calculated as the IC50 of the drug alone divided by the IC50 o
# (§8) the [drug modulator] combination. Data are presented from tretments with
# (§9) the nontoxic concentration limit of each analog as noted.
# [4] = tested on: S180/MDR cell system and rat colon cancer cell lines; assay: Cytotoxicity in the S180/MDR cell system and the rat colon cancer cell lines; assay type: cell-based, mouse; settings: S-180, 72 h
# Excerpt: as §6, §1
# S180/A3 cells = assay: Modulator potency in MDR cells: reversal of acquired resistance, S180/A3; assay type: cell-based, murine; settings: for Modulator potency in MDR cells (minimal concentration restoring parental drug sensitivity), ADM: drug resistance level 15; for Modulator potency in MDR cells (minimal concentration restoring parental drug sensitivity), VBL: drug resistance level 3; for Modulator potency in MDR cells (minimal concentration restoring parental drug sensitivity), VCR: drug resistance level 7
# Description: as §1, §2, §3, §4, §5
# RCC-5 cells = assay: Modulation of intrinsic drug resistance, RCC-5; assay type: cell-based, rat; settings: RCC-5; IC50 drug alone / IC50 drug + modulator, at nontoxic concentration limit
# Description: as §1, §7, §8, §9
# FIG. 9 represents the modulation of VCR sensitivity in the RCC-12 (A) and RCC-5 (B) cell lines by the analog C-20'-deoxy deethyl vincovaline. Population growth was determined after 72 hours incubation in the absence (o), or presence of 10 μM (o), 20 μM (Δ), or 50 μM of analog. Data presented are from a typical experiment.
# RCC-2 cells = assay: Modulation of intrinsic drug resistance, RCC-2; assay type: cell-based, rat; settings: IC50 drug alone / IC50 drug + modulator, at nontoxic concentration limit
# Description: as §1, §7, §8, §9
# [5] = Inhibition of population growth (cytotoxicity), rat colon adenocarcinoma RCC-2; assay type: cell-based; settings: rat, rcc-2 cells; RCC-2; Table III; read-out: Modulator concentration (nontoxic concentration limit of the analog)
# Excerpt: as §6, §1
# [6] = tested on: S180 MDR cell strains A3 and A10; assay: Modulation of acquired drug resistance in the S180 MDR cell strains A3 and A10; assay type: cell-based, murine; settings: VBL, VCR and ADM
# Description: as §1, §2
# FIG. 5 represents the modulation of multidrug resistance in the MDR cell strains by the vinca alkaloids. Vindoline (A), vincovaline (B), or the analog C-20'-deoxy vincovaline (C) was added, at various concentrations, to A3 (closed symbols) or A10 (opened symbols) cell cultures containing the parental IC70 of each drug: 2.0×10^-7 M. ADM (circles: 1.5×10^-8 M VBL (triangles); and 4.5×10^-8 M; VCR (squares). Population growth was determined 72 hours later.
# FIG. 6 represents the relationship between cellular drug resistance level and the minimal modulator concentration required for complete reversal of drug resistance. The drugs examined were ADM (o), VBL (Δ), and VCR (.quadrature.). The amount (concentration) of modulator, necessary to reverse each level of drug resistance contained in the A3 and A10 cell lines, was determined from data such as those of FIG. 5. The values presented were averaged from duplicate samples of two separate experiments, S.D.<15% of the mean. The arrows denote the non-toxic concentration limit for the modulator; in the case of Vincovaline this value is dependent on the MDR cell strain, 2×10^-5 M, A3; 5×10^-5 M. A10.
# FIG. 11 represents the modulation of multidrug resistance in the S180 MDR cell strains A3 and A10. The cellular drug resistance level is plotted against the minimal concentration of C-20'-deoxy deethyl vincovaline required for the complete reversal of drug resistance to ADM (o), VBL (Δ), and VCR (.quadrature.). In the case of high level ADM resistance […], the sensitivity of the cells was restored to 80% of the parental value. The arrow denotes the non-toxic concentration limit of the analog.
# S180 cells, parental = assay: Modulation of intrinsic drug resistance, parental S180; assay type: cell-based, murine; settings: S180; IC50 drug alone / IC50 drug + modulator, at nontoxic concentration limit
# Description: as §1
# The ability of the compounds to modulate drug sensitivity in parental cells was studied over a range of concentrations of each compound, from 10^-6 M to the non-toxic (IC10-20) or solubility limit. […] From such experiments, we determined a sensitivity index derived from the IC50 of the drug without modulator treatment divided by the drug IC50 at each concentration of modulator.
# When the sensitivity index for each drug, VBL, VCR and ADM is plotted versus the modulator concentration (FIG. 4), we can compare the relative potencies of the compounds as modulators of drug toxicity to the parental S180 cells.
# as §7, §8
# FIG. 4 represents the potency of the vinca alkaloid compounds as modulators of drug sensitivity in S180 cells. The enhancement of sensitivity was calculated as the sensitivity index=IC50 of the drug alone divided by the IC50 of the drug+modulator. The IC50s for ADM (o) VBL (Δ), or VCR (.quadrature.) were determined over a concentration range of each modulator from data such as those depicted in FIG. 3. The values presented were averaged from duplicate samples of two separate experiments, S.D. <15% of the mean.
SMILES,reversal of high level ADM resistance (S180/A10 cells; ADM),"Modulator potency in MDR cells (minimal concentration restoring parental drug sensitivity), VBL (S180/A10 cells)","Modulator potency in MDR cells (minimal concentration restoring parental drug sensitivity), VCR (S180/A10 cells)",MNTC at 72 h [1],MNTC at 72 h [2],modulation of intrinsic cellular resistance to ADM and/or VCR (in words) [3],effect on the sensitivity of parental cells to VBL (in words) [3],enhancement of VCR cytotoxicity in the parental cell lines [3],pIC50 [4],"Modulator potency in MDR cells (minimal concentration restoring parental drug sensitivity), ADM (S180/A3 cells)","Modulator potency in MDR cells (minimal concentration restoring parental drug sensitivity), VBL (S180/A3 cells)","Modulator potency in MDR cells (minimal concentration restoring parental drug sensitivity), VCR (S180/A3 cells)","Maximum sensitization of parental cells by modulator, drug ADM (RCC-5 cells)","Maximum sensitization of parental cells by modulator, drug VBL (RCC-5 cells)","Maximum sensitization of parental cells by modulator, drug VCR (RCC-5 cells)","Maximum sensitization of parental cells by modulator, drug ADM (RCC-2 cells)","Maximum sensitization of parental cells by modulator, drug VBL (RCC-2 cells)","Maximum sensitization of parental cells by modulator, drug VCR (RCC-2 cells)",MNTC at 72 h [5],range of resistance levels over which parental sensitivity was restored [6],other results
"CCC1CC2CN(CCc3c([nH]c4ccccc34)C(C(=O)OC)(c3cc4c(cc3OC)N(C)C3C(O)(C(=O)OC)C(OC(C)=O)C5(CC)C=CCN6CCC43C65)C2)C1 (stereo not drawn) [analog n° 353, C-14'-epi-C-20'-deoxy-VBL]",80%,10.0 µM,13.0 µM,10 µM,40 µM,modulated intrinsic cellular resistance to ADM and/or VCR,less effect on the sensitivity of parental cells to VBL,7-18 fold,≤ 5.30,35. μM,4.0 µM,4.0 µM,6.4,1.6,3.5,2.1,1.8,7.3,10 µM,3-90 fold,"Modulator potency in MDR cells, ADM (value marked #) (S180/A10 cells; ADM, drug resistance level 90, #: significant (>50%) reversal at the maximum nontoxic concentration): 40. μM; Maximum sensitization of parental cells by modulator, drug ADM (S180 cells, parental): 4.0; Maximum sensitization of parental cells by modulator, drug VBL (S180 cells, parental): 1.4; Maximum sensitization of parental cells by modulator, drug VCR (S180 cells, parental): 7.0"
"CC[C@H]1C[C@@H]2CN(CCc3c([nH]c4ccccc34)[C@](C(=O)OC)(c3cc4c(cc3OC)N(C)[C@H]3[C@@](O)(C(=O)OC)[C@H](OC(C)=O)[C@]5(CC)C=CCN6CC[C@]43[C@@H]65)C2)C1 [analog n° 354, C-20'-deoxy-C-16', 20' epi VBL]",80%,10.0 µM,20.0 µM,5 µM,20 µM,modulated intrinsic cellular resistance to ADM and/or VCR,less effect on the sensitivity of parental cells to VBL,7-18 fold,≤ 5.30,25. μM,1.7 µM,10.0 µM,5.3,1.9,18.0,1.9,1.2,4.0,5 µM,3-90 fold,"Modulator potency in MDR cells (minimal concentration restoring parental drug sensitivity), ADM (S180/A10 cells; ADM, drug resistance level 90): 40. μM; Maximum sensitization of parental cells by modulator, drug ADM (S180 cells, parental): 5.0; Maximum sensitization of parental cells by modulator, drug VBL (S180 cells, parental): 1.0; Maximum sensitization of parental cells by modulator, drug VCR (S180 cells, parental): 3.0"
